As usually defined, the IC50 is the concentration at which inhibition is half-maximal.

The target in one assay is MAGL (Mus musculus (Mouse), UniProt O35678). Briefly: In vitro competitive activity-based protein profiling, MAGL (mouse). It is filed as biochemical. The following applies: for inhibition at 1 µM: read-out: MAGL % inh. 1 μM (mouse). A digest of the protocol:
(§1)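 Residual MAGL and FAAH activity came from in-gel fluorescence after competition between inhibitor (30 min preincubation, 37° C) and the activity-based probe FP-Rh or HT-01 (30 min, 37° C) in mouse or human tissue or cell proteomes.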

The next assay has as its target FAAH (Mus musculus (Mouse), UniProt O08914). Briefly: In vitro competitive activity-based protein profiling, FAAH (mouse). It is filed as biochemical. As to conditions: for inhibition at 1 µM: read-out: FAAH % inh. 1 μM (mouse). The procedure, abridged:
as §1

MAGL, sequence (O35678 whole entry): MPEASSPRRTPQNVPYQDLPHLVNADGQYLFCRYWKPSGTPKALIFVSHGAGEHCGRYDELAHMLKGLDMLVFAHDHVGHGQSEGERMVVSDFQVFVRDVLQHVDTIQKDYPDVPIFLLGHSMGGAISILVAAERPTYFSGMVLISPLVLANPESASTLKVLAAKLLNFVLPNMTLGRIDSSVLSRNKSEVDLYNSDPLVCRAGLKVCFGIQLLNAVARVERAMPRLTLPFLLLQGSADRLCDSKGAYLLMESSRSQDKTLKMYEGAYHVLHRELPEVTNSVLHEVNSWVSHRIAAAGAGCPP
FAAH, sequence (O08914 whole entry): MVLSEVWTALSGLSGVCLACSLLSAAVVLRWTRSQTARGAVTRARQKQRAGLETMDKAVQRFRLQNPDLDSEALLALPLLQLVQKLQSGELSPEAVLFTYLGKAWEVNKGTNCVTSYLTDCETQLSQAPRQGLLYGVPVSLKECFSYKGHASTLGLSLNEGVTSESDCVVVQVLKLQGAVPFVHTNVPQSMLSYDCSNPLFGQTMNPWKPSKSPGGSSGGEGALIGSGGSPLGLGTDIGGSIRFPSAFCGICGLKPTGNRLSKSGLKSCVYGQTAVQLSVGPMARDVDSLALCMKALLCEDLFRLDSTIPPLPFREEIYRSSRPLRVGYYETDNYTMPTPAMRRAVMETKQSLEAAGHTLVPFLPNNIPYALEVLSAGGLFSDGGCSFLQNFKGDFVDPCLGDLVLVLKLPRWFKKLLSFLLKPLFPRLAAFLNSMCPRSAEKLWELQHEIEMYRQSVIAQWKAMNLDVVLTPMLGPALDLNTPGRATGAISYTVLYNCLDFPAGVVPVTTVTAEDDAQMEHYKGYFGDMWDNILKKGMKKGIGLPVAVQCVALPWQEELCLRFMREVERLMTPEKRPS

As for `CC(=O)N(C)c1cnn(C(=O)N2C[C@H]3C[C@H](N(C)Cc4cc(Cl)ccc4C(F)(F)F)C[C@H]3C2)c1` [Example 164, N-(1-(trans-5-((5-chloro-2-(trifluoromethyl)benzyl)(methyl)amino)octahydrocyclopenta[c]pyrrole-2-carbonyl)-1H-pyrazol-4-yl)-N-methylacetamide], on MAGL, the IC50 is at most 0.1 µM and the inhibition at 1 µM was at least 75%. Further, at FAAH, the IC50 was at most 0.1 µM and the inhibition at 1 µM was at least 75%.

For the compound `CC(=O)N(C)c1cnn(C(=O)N2C[C@H]3C[C@H](N(C)Cc4cc(Cl)ccc4Cl)C[C@H]3C2)c1` [Example 165, N-(1-(trans-5-((2,5-dichlorobenzyl)(methyl)amino)octahydrocyclopenta[c]pyrrole-2-carbonyl)-1H-pyrazol-4-yl)-N-methylacetamide], the inhibition at 1 µM on MAGL and at FAAH was at least 75% throughout.

Consider `CC(=O)N(C)c1cnn(C(=O)N2C[C@H]3C[C@H](N(C)Cc4cc(C(F)(F)F)ccc4Cl)C[C@H]3C2)c1` [Example 166, N-(1-(trans-5-((2-chloro-5-(trifluoromethyl)benzyl)(methyl)amino)octahydrocyclopenta[c]pyrrole-2-carbonyl)-1H-pyrazol-4-yl)-N-methylacetamide], for which the inhibition at 1 µM on MAGL and on FAAH was at least 75% in each case.

Take `CC(=O)N(C)c1cnn(C(=O)N2C[C@H]3C[C@@H](N(C)Cc4cc(N5CCCC5)ccc4C(F)(F)F)C[C@H]3C2)c1` [Example 167, N-methyl-N-(1-(cis-5-(methyl(5-(pyrrolidin-1-yl)-2-(trifluoromethyl)benzyl)amino)octahydrocyclopenta[c]pyrrole-2-carbonyl)-1H-pyrazol-4-yl)acetamide]: the inhibition at 1 µM at MAGL and at FAAH was at least 75% throughout.

Consider `CC(=O)N(C)c1cnn(C(=O)N2C[C@H]3C[C@@H](N(C)Cc4cc(C(F)(F)F)ccc4N4CCCC4)C[C@H]3C2)c1` [Example 168, N-methyl-N-(1-(cis-5-(methyl(2-(pyrrolidin-1-yl)-5-(trifluoromethyl)benzyl)amino)octahydrocyclopenta[c]pyrrole-2-carbonyl)-1H-pyrazol-4-yl)acetamide], for which the inhibition at 1 µM is at least 75% on MAGL and 50 to 75% at FAAH.

As for `CC(=O)N(C)c1cnn(C(=O)N2C[C@H]3C[C@@H](N(Cc4ccccc4Cl)C(C)=O)C[C@H]3C2)c1` [Example 169, N-(2-chlorobenzyl)-N-(cis-2-(4-(N-methylacetamido)-1H-pyrazole-1-carbonyl)octahydrocyclopenta[c]pyrrol-5-yl)acetamide], the inhibition at 1 µM is at least 75% on MAGL and 25 to 50% on FAAH.

`CC(=O)N(C)c1cnn(C(=O)N2C[C@H]3C[C@@H](N(Cc4cccc(Cl)c4)C(C)=O)C[C@H]3C2)c1` [Example 170, N-(3-chlorobenzyl)-N-(cis-2-(4-(N-methylacetamido)-1H-pyrazole-1-carbonyl)octahydrocyclopenta[c]pyrrol-5-yl)acetamide]: the inhibition at 1 µM on MAGL was at least 75%; on FAAH it was 25 to 50%.

As to `CC(=O)N(C)c1cnn(C(=O)N2C[C@H]3C[C@@H](N(Cc4ccc(Cl)cc4)C(C)=O)C[C@H]3C2)c1` [Example 171, N-(4-chlorobenzyl)-N-(cis-2-(4-(N-methylacetamido)-1H-pyrazole-1-carbonyl)octahydrocyclopenta[c]pyrrol-5-yl)acetamide], the inhibition at 1 µM is at least 75% on MAGL and 25 to 50% at FAAH.

Consider `CC(=O)N(C)c1cnn(C(=O)N2C[C@H]3C[C@H](N(Cc4cccc(Cl)c4)C(C)=O)C[C@H]3C2)c1` [Example 173, N-(3-chlorobenzyl)-N-(trans-2-(4-(N-methylacetamido)-1H-pyrazole-1-carbonyl)octahydrocyclopenta[c]pyrrol-5-yl)acetamide], for which the inhibition at 1 µM is at least 75% at MAGL and 0 to 25% at FAAH.

With `CC(=O)N(C)c1cnn(C(=O)N2C[C@H]3C[C@H](N(Cc4ccc(Cl)cc4)C(C)=O)C[C@H]3C2)c1` [Example 174, N-(4-chlorobenzyl)-N-(trans-2-(4-(N-methylacetamido)-1H-pyrazole-1-carbonyl)octahydrocyclopenta[c]pyrrol-5-yl)acetamide], the inhibition at 1 µM was at least 75% on MAGL and 0 to 25% on FAAH.

For `CC(=O)N(C)c1cnn(C(=O)N2CC3CN(Cc4ccc(F)cc4)CC3C2)c1` (centres unmarked) [Example 178, N-(1-(5-(4-fluorobenzyl)octahydropyrrolo[3,4-c]pyrrole-2-carbonyl)-1H-pyrazol-4-yl)-N-methylacetamide], at MAGL, the IC50 was 1 to 10 µM and the inhibition at 1 µM is 25 to 50%. For the same compound, at FAAH, the IC50 was in the range of 0.1 to 1 µM and the inhibition at 1 µM is at least 75%.

In the case of `COc1ccc(CN2CC3CN(C(=O)n4cc(N(C)C(C)=O)cn4)CC3C2)cc1` (centres unmarked) [Example 179, N-(1-(5-(4-methoxybenzyl)octahydropyrrolo[3,4-c]pyrrole-2-carbonyl)-1H-pyrazol-4-yl)-N-methylacetamide], the inhibition at 1 µM at MAGL is 25 to 50%; on FAAH, at least 75%.

As to `CC(=O)N(C)c1cnn(C(=O)N2CC3CN(Cc4cccc(F)c4)CC3C2)c1` (centres unmarked) [Example 180, N-(1-(5-(3-fluorobenzyl)octahydropyrrolo[3,4-c]pyrrole-2-carbonyl)-1H-pyrazol-4-yl)-N-methylacetamide], on MAGL, the IC50 lay in the range of 0.1 to 1 µM and the inhibition at 1 µM was in the range of 50 to 75%. At FAAH, the IC50 was 0.1 to 1 µM and the inhibition at 1 µM is at least 75%.

For `COc1cccc(CN2CC3CN(C(=O)n4cc(N(C)C(C)=O)cn4)CC3C2)c1` (centres unmarked) [Example 181, N-(1-(5-(3-methoxybenzyl)octahydropyrrolo[3,4-c]pyrrole-2-carbonyl)-1H-pyrazol-4-yl)-N-methylacetamide], the IC50 on MAGL was 1 to 10 µM; at FAAH it was 0.1 to 1 µM. Also, the inhibition at 1 µM at MAGL was 50 to 75%; on FAAH, at least 75%.

For `CC(=O)N(C)c1cnn(C(=O)N2CC3CN(Cc4ccccc4F)CC3C2)c1` (centres unmarked) [Example 182, N-(1-(5-(2-fluorobenzyl)octahydropyrrolo[3,4-c]pyrrole-2-carbonyl)-1H-pyrazol-4-yl)-N-methylacetamide], the values for the IC50 at MAGL and on FAAH were 0.1 to 1 µM and at most 0.1 µM, respectively. Further, the inhibition at 1 µM at MAGL and on FAAH was at least 75% each time.

With `CC(=O)N(C)c1cnn(C(=O)N2CC3CN(Cc4ccccc4N4CCCC4)CC3C2)c1` (centres unmarked) [Example 184, N-methyl-N-(1-(5-(2-(pyrrolidin-1-yl)benzyl)octahydropyrrolo[3,4-c]pyrrole-2-carbonyl)-1H-pyrazol-4-yl)acetamide], the inhibition at 1 µM is at least 75% on MAGL and 50 to 75% on FAAH.

Take `CC(=O)N(C)c1cnn(C(=O)N2CC3CN(Cc4ccccc4N4CCOCC4)CC3C2)c1` (centres unmarked) [Example 185, N-methyl-N-(1-(5-(2-morpholinobenzyl)octahydropyrrolo[3,4-c]pyrrole-2-carbonyl)-1H-pyrazol-4-yl)acetamide]: the inhibition at 1 µM on MAGL was in the range of 50 to 75%; at FAAH, 0 to 25%.

For the compound `CC(=O)N(C)c1cnn(C(=O)N2CCC3(CCN(Cc4ccccc4Cl)C3)CC2)c1` [Example 186, N-(1-(2-(2-chlorobenzyl)-2,8-diazaspiro[4.5]decane-8-carbonyl)-1H-pyrazol-4-yl)-N-methylacetamide], at MAGL, the IC50 is at most 0.1 µM and the inhibition at 1 µM is at least 75%. For the same compound, on FAAH, the IC50 was in the range of 0.1 to 1 µM and the inhibition at 1 µM was at least 75%.

Consider `CC(=O)N(C)c1cnn(C(=O)N2CCC3(CCN(Cc4cccc(Cl)c4)C3)CC2)c1` [Example 187, N-(1-(2-(3-chlorobenzyl)-2,8-diazaspiro[4.5]decane-8-carbonyl)-1H-pyrazol-4-yl)-N-methylacetamide], for which the IC50 at MAGL and at FAAH was 0.1 to 1 µM throughout. The inhibition at 1 µM on MAGL and at FAAH was at least 75% throughout.

For the compound `CC(=O)N(C)c1cnn(C(=O)N2CCC3(CCN(Cc4ccc(Cl)cc4)C3)CC2)c1` [Example 188, N-(1-(2-(4-chlorobenzyl)-2,8-diazaspiro[4.5]decane-8-carbonyl)-1H-pyrazol-4-yl)-N-methylacetamide], the IC50 on MAGL and at FAAH was 0.1 to 1 µM in each case. The inhibition at 1 µM on MAGL and on FAAH was at least 75% throughout.

`CC(=O)N(C)c1cnn(C(=O)N2CC3CN(Cc4ccc(OCC(=O)N5CCCC5)cc4Cl)CC3C2)c1` (centres unmarked) [Example 189, N-(1-(5-(2-chloro-4-(2-oxo-2-(pyrrolidin-1-yl)ethoxy)benzyl)octahydropyrrolo[3,4-c]pyrrole-2-carbonyl)-1H-pyrazol-4-yl)-N-methylacetamide]: at MAGL, the half-maximal inhibitory concentration (IC50) was in the range of 1 to 10 µM and the inhibition at 1 µM was at least 75%. At FAAH, the IC50 was 0.1 to 1 µM and the inhibition at 1 µM was in the range of 0 to 25%.

Consider `CC(=O)N(C)c1cnn(C(=O)N2CCN(Cc3cc(N4CCCC4)cc(C(F)(F)F)c3)CC2)c1` [Example 190, N-methyl-N-(1-(4-(3-(pyrrolidin-1-yl)-5-(trifluoromethyl)benzyl)piperazine-1-carbonyl)-1H-pyrazol-4-yl)acetamide], for which, on MAGL, the IC50 is at most 0.1 µM and the inhibition at 1 µM was at least 75%. At FAAH, the IC50 fell in the range of 1 to 10 µM and the inhibition at 1 µM was 50 to 75%.

`CC(=O)N(C)c1cnn(C(=O)N2CCN(Cc3ccc(C(F)(F)F)cc3N3CCCC3)CC2)c1` [Example 191, N-methyl-N-(1-(4-(2-(pyrrolidin-1-yl)-4-(trifluoromethyl)benzyl)piperazine-1-carbonyl)-1H-pyrazol-4-yl)acetamide]: at MAGL, the IC50 was at most 0.1 µM and the inhibition at 1 µM was at least 75%. At FAAH, the IC50 was 0.1 to 1 µM and the inhibition at 1 µM lay in the range of 25 to 50%.

These data come from US10323038B2, “Pyrazole compounds and methods of making and using same” (ABIDE THERAPEUTICS, INC., priority 2015, dated 2019).
